In brackets after ≈: the same amount, converted by molar mass. Non-standard residues stand in square brackets, D forms with d. Residues, ends and D or L forms follow the SMILES beside them. ξ: configuration not given here. Pro(3ξ,4ξ-(CH2)4) = O=C(O)[C@H]1NCC2CCCCC21; Tic = O=C(O)[C@@H]1Cc2ccccc2CN1

This note sets out measurements from ChEMBL document CHEMBL1138365, “Application of 3D-QSAR for identification of descriptors defining bioactivity of antimicrobial peptides” (2007).

One assay deals with Staphylococcus aureus. The assay is described as follows: Antibacterial activity against Staphylococcus aureus. It is filed as functional.
`CC(=O)N[C@@H](Cc1ccccc1)C(=O)N1Cc2ccccc2C[C@H]1C(=O)N1CC2CCCCC2[C@H]1C(=O)N[C@@H](CCCCN)C(=O)N1Cc2ccccc2C[C@H]1C(=O)N1CC2CCCCC2[C@H]1C(=O)N[C@@H](Cc1ccccc1)C(=O)N1Cc2ccccc2C[C@H]1C(=O)N1CC2CCCCC2[C@H]1C(=O)N[C@@H](CCCCN)C(=O)N1Cc2ccccc2C[C@H]1C(=O)N[C@@H](CCCCN)C(=O)N[C@@H](CCCCN)C(=O)N[C@@H](CCCCN)C(=O)N[C@@H](CCCCN)C(N)=O` (stereo partly specified) (Ac-F[Tic][Pro(3ξ,4ξ-(CH2)4)]K[Tic][Pro(3ξ,4ξ-(CH2)4)]F[Tic][Pro(3ξ,4ξ-(CH2)4)]K[Tic]KKKK-NH2) displayed a minimal inhibitory concentration (MIC) of 3 µM (≈ 6.64 µg/mL). Still for that read-out and setting: as for `CC(C)C[C@H](NC(=O)CNC(=O)[C@H](CCCCN)NC(=O)CN)C(=O)N1Cc2ccccc2C[C@H]1C(=O)N1CC2CCCCC2[C@H]1C(=O)NCC(=O)N[C@@H](CCCCN)C(=O)N1Cc2ccccc2C[C@H]1C(=O)N1CC2CCCCC2[C@H]1C(=O)NCC(=O)N[C@@H](Cc1ccccc1)C(=O)N1Cc2ccccc2C[C@H]1C(=O)N1CC2CCCCC2[C@H]1C(=O)NCC(=O)N[C@@H](CCCCN)C(=O)N1Cc2ccccc2C[C@H]1C(=O)N1CC2CCCCC2[C@H]1C(=O)NCC(=O)N[C@@H](Cc1ccccc1)C(=O)N1Cc2ccccc2C[C@H]1C(=O)N1CC2CCCCC2[C@H]1C(=O)NCC(=O)N[C@@H](CCCCN)C(=O)N1Cc2ccccc2C[C@H]1C(=O)N1CC2CCCCC2[C@H]1C(=O)NCC(=O)N[C@@H](CCCCN)C(=O)N[C@@H](CCCNC(=N)N)C(N)=O` (stereo partly specified) (H-GKGL[Tic][Pro(3ξ,4ξ-(CH2)4)]GK[Tic][Pro(3ξ,4ξ-(CH2)4)]GF[Tic][Pro(3ξ,4ξ-(CH2)4)]GK[Tic][Pro(3ξ,4ξ-(CH2)4)]GF[Tic][Pro(3ξ,4ξ-(CH2)4)]GK[Tic][Pro(3ξ,4ξ-(CH2)4)]GKR-NH2), the figure is 10 µM (≈ 35.4 µg/mL); as for `CC(C)C[C@H](NC(=O)CNC(=O)[C@@H]1C2CCCCC2CN1C(=O)[C@@H]1Cc2ccccc2CN1C(=O)[C@H](CC(C)C)NC(=O)CNC(=O)[C@@H]1C2CCCCC2CN1C(=O)[C@@H]1Cc2ccccc2CN1C(=O)[C@H](CCCCN)NC(=O)CNC(=O)[C@@H]1C2CCCCC2CN1C(=O)[C@@H]1Cc2ccccc2CN1C(=O)[C@H](CC(C)C)NC(=O)CNC(=O)[C@@H]1C2CCCCC2CN1C(=O)[C@@H]1Cc2ccccc2CN1C(=O)[C@H](CCCCN)NC(=O)CNC(=O)[C@@H]1C2CCCCC2CN1C(=O)[C@@H]1Cc2ccccc2CN1C(=O)[C@H](CC(C)C)NC(=O)CNC(=O)[C@@H]1C2CCCCC2CN1C(=O)[C@@H]1Cc2ccccc2CN1C(=O)[C@@H](CC(C)C)NC(=O)CNC(=O)[C@H](CCCCN)NC(=O)CN)C(=O)N[C@@H](CCCNC(=N)N)C(N)=O` (stereo partly specified), 100 µM (≈ 344 µg/mL); as for `CC(C)C[C@H](NC(=O)CNC(=O)[C@H](CCCCN)NC(=O)CN)C(=O)N1Cc2ccccc2C[C@H]1C(=O)N1CC2CCCCC2[C@H]1C(=O)N[C@H](Cc1ccccc1)C(=O)N[C@H](CCCCN)C(=O)N1Cc2ccccc2C[C@@H]1C(=O)N1CC2CCCCC2[C@H]1C(=O)N[C@H](CCCCN)C(=O)N[C@H](Cc1ccccc1)C(=O)N1Cc2ccccc2C[C@H]1C(=O)N1CC2CCCCC2[C@@H]1C(=O)N[C@H](Cc1ccccc1)C(=O)N[C@H](CCCCN)C(=O)N1Cc2ccccc2C[C@@H]1C(=O)N1CC2CCCCC2[C@H]1C(=O)N[C@@H](CCCCN)C(=O)N[C@@H](Cc1ccccc1)C(=O)N1Cc2ccccc2C[C@@H]1C(=O)N1CC2CCCCC2[C@H]1C(=O)N[C@H](Cc1ccccc1)C(=O)N[C@H](CCCCN)C(=O)N1Cc2ccccc2C[C@@H]1C(=O)N1CC2CCCCC2[C@@H]1C(=O)N[C@H](Cc1ccccc1)C(=O)N[C@@H](CCCCN)C(=O)N[C@@H](CCCNC(=N)N)C(N)=O` (stereo partly specified), 30 µM (≈ 121 µg/mL). `CC(C)C[C@@H](NC(=O)CNC(=O)[C@H](CCCCN)NC(=O)CN)C(=O)N1Cc2ccccc2C[C@H]1C(=O)N1CC2CCCCC2[C@H]1C(=O)NCC(=O)N[C@@H](CCCNC(=N)N)C(=O)N1Cc2ccccc2C[C@H]1C(=O)N1CC2CCCCC2[C@H]1C(=O)NCC(=O)N[C@@H](Cc1ccccc1)C(=O)N1Cc2ccccc2C[C@H]1C(=O)N1CC2CCCCC2[C@H]1C(=O)NCC(=O)N[C@@H](CCCNC(=N)N)C(=O)N1Cc2ccccc2C[C@H]1C(=O)N1CC2CCCCC2[C@H]1C(=O)NCC(=O)N[C@@H](Cc1ccccc1)C(=O)N1Cc2ccccc2C[C@H]1C(=O)N1CC2CCCCC2[C@H]1C(=O)NCC(=O)N[C@@H](CCCNC(=N)N)C(=O)N1Cc2ccccc2C[C@H]1C(=O)N1CC2CCCCC2[C@H]1C(=O)NCC(=O)N[C@@H](CCCCN)C(=O)N[C@@H](CCCNC(=N)N)C(N)=O` (stereo partly specified) had an MIC of 10 µM (≈ 36.2 µg/mL). Still for that read-out and setting: as for `CC(C)C[C@H](NC(=O)CNC(=O)[C@@H]1C2CCCCC2CN1C(=O)[C@@H]1Cc2ccccc2CN1C(=O)[C@H](CCCCN)NC(=O)CNC(=O)[C@@H]1C2CCCCC2CN1C(=O)[C@@H]1Cc2ccccc2CN1C(=O)[C@H](CC(C)C)NC(=O)CNC(=O)[C@@H]1C2CCCCC2CN1C(=O)[C@@H]1Cc2ccccc2CN1C(=O)[C@H](CCCCN)NC(=O)CNC(=O)[C@@H]1C2CCCCC2CN1C(=O)[C@@H]1Cc2ccccc2CN1C(=O)[C@@H](CC(C)C)NC(=O)CNC(=O)[C@H](CCCCN)NC(=O)CN)C(=O)N1Cc2ccccc2C[C@H]1C(=O)N1CC2CCCCC2[C@H]1C(=O)NCC(=O)N[C@@H](CCCCN)C(=O)N1Cc2ccccc2C[C@H]1C(=O)N1CC2CCCCC2[C@H]1C(=O)NCC(=O)N[C@@H](CCCCN)C(=O)N[C@@H](CCCNC(=N)N)C(N)=O` (stereo partly specified), the figure is 10 µM (≈ 34.7 µg/mL).

For the next assay, the system named is Mycolicibacterium fortuitum. The assay is described as follows: Antibacterial activity against Mycobacterium ranae. The format is functional.
Regarding `CC(=O)N[C@@H](Cc1ccccc1)C(=O)N1Cc2ccccc2C[C@H]1C(=O)N1CC2CCCCC2[C@H]1C(=O)N[C@@H](CCCCN)C(=O)N1Cc2ccccc2C[C@H]1C(=O)N1CC2CCCCC2[C@H]1C(=O)N[C@@H](Cc1ccccc1)C(=O)N1Cc2ccccc2C[C@H]1C(=O)N1CC2CCCCC2[C@H]1C(=O)N[C@@H](CCCCN)C(=O)N1Cc2ccccc2C[C@H]1C(=O)N[C@@H](CCCCN)C(=O)N[C@@H](CCCCN)C(=O)N[C@@H](CCCCN)C(=O)N[C@@H](CCCCN)C(N)=O` (stereo partly specified) (Ac-F[Tic][Pro(3ξ,4ξ-(CH2)4)]K[Tic][Pro(3ξ,4ξ-(CH2)4)]F[Tic][Pro(3ξ,4ξ-(CH2)4)]K[Tic]KKKK-NH2), the MIC worked out at 30 µM (≈ 66.4 µg/mL).

Molecule `CC(=O)NCC(=O)N[C@@H](Cc1ccccc1)C(=O)N1Cc2ccccc2C[C@H]1C(=O)NCC(=O)NCC(=O)N[C@@H](CCCCN)C(=O)N1Cc2ccccc2C[C@H]1C(=O)NCC(=O)NCC(=O)N[C@@H](Cc1ccccc1)C(=O)N1Cc2ccccc2C[C@H]1C(=O)NCC(=O)NCC(=O)N[C@@H](CCCCN)C(=O)N1Cc2ccccc2C[C@H]1C(=O)N[C@@H](CCCCN)C(=O)N[C@@H](CCCCN)C(=O)N[C@@H](CCCCN)C(=O)N[C@@H](CCCCN)C(N)=O` (Ac-GF[Tic]GGK[Tic]GGF[Tic]GGK[Tic]KKKK-NH2) returned an MIC of 30 µM (≈ 64.8 µg/mL). `CC(=O)NCC(=O)N[C@@H](Cc1ccccc1)C(=O)N1Cc2ccccc2C[C@H]1C(=O)NCC(=O)N[C@@H](CCCCN)C(=O)N1Cc2ccccc2C[C@H]1C(=O)NCC(=O)N[C@@H](Cc1ccccc1)C(=O)N1Cc2ccccc2C[C@H]1C(=O)NCC(=O)N[C@@H](CCCCN)C(=O)N1Cc2ccccc2C[C@H]1C(=O)N[C@@H](CCCCN)C(=O)N[C@@H](CCCCN)C(=O)N[C@@H](CCCCN)C(=O)N[C@@H](CCCCN)C(N)=O` (Ac-GF[Tic]GK[Tic]GF[Tic]GK[Tic]KKKK-NH2) yielded an MIC of 30 µM (≈ 59.6 µg/mL). On the same count and under the same terms, the figure for `CC(=O)NCC(=O)N[C@@H](Cc1ccccc1)C(=O)N1CC2CCCCC2[C@H]1C(=O)NCC(=O)N[C@@H](CCCCN)C(=O)N1CC2CCCCC2[C@H]1C(=O)NCC(=O)N[C@@H](Cc1ccccc1)C(=O)N1CC2CCCCC2[C@H]1C(=O)NCC(=O)N[C@@H](CCCCN)C(=O)N[C@@H](CCCCN)C(=O)N[C@@H](CCCCN)C(=O)N[C@@H](CCCCN)C(=O)N[C@@H](CCCCN)C(N)=O` (stereo partly specified) (Ac-GF[Pro(3ξ,4ξ-(CH2)4)]GK[Pro(3ξ,4ξ-(CH2)4)]GF[Pro(3ξ,4ξ-(CH2)4)]GKKKKK-NH2) is 100 µM (≈ 180 µg/mL); for `CC(=O)NCC(=O)N[C@@H](Cc1ccccc1)C(=O)NCC(=O)N1CC2CCCCC2[C@H]1C(=O)NCC(=O)N[C@@H](CCCCN)C(=O)NCC(=O)N1CC2CCCCC2[C@H]1C(=O)NCC(=O)N[C@@H](Cc1ccccc1)C(=O)NCC(=O)N1CC2CCCCC2[C@H]1C(=O)NCC(=O)N[C@@H](CCCCN)C(=O)NCC(=O)N[C@@H](CCCCN)C(=O)N[C@@H](CCCCN)C(=O)N[C@@H](CCCCN)C(=O)N[C@@H](CCCCN)C(N)=O` (stereo partly specified) (Ac-GFG[Pro(3ξ,4ξ-(CH2)4)]GKG[Pro(3ξ,4ξ-(CH2)4)]GFG[Pro(3ξ,4ξ-(CH2)4)]GKGKKKK-NH2) it is 100 µM (≈ 203 µg/mL).

What is called MIC is the lowest concentration that inhibits growth of the organism. Higher therefore signals a need for much substance.
